Earlier results in patent publication US11951104B2 (LIVZON PHARMACEUTICAL GROUP INC, priority 2018, dated 2024).

What was measured:
5-HT2A receptors = 5-HT2A receptors (Homo sapiens, UniProt P28223); settings: background
5-HT1A receptors = target: T1, 5-HT1A receptors (Homo sapiens, UniProt P08908); settings: background
T1 sequence (P08908 1-422): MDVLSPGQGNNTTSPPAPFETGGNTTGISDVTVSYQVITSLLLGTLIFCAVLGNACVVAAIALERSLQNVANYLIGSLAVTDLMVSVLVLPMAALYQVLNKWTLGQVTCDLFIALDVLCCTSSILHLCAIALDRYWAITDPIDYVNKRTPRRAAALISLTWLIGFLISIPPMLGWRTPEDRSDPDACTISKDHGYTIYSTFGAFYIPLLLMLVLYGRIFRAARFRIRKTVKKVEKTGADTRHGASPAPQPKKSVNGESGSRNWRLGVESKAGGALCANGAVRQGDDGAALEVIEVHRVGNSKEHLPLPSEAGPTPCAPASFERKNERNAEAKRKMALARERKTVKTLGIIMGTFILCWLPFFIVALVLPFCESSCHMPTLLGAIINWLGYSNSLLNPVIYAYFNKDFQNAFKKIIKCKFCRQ

Chain of 5-HT2A receptors (P28223 whole entry): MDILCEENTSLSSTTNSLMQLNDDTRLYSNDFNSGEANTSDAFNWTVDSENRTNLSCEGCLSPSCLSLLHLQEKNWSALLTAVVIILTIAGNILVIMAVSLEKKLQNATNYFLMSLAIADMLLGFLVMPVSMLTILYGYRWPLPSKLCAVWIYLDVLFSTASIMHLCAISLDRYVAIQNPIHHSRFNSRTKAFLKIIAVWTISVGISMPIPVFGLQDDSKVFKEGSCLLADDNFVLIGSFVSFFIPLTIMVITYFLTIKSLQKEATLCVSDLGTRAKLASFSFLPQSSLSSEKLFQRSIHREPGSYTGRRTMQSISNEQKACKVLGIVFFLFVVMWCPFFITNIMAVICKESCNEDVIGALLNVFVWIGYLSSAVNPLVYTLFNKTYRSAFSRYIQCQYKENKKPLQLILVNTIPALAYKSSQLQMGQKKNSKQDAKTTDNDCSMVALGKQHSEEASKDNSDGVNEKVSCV

## O=C1CCc2ccc(OCCCCN3CCN(c4cccc(Cl)c4Cl)CC3)cc2N1 [aripiprazole]
5-HT2A receptors
  affinity for 5-HT2A receptors: high affinity
5-HT1A receptors
  affinity for 5-HT1A receptors: high affinity
